Reference: ChEMBL document CHEMBL4808186, “Structure-Based Discovery of Pyrimidine Aminobenzene Derivatives as Potent Oral Reversal Agents against P-gp- and BCRP-Mediated Multidrug Resistance” (J Med Chem, 2021)
Activity calls are given as the source filed them. No cut-off for these calls is given here.

Legend:
MDCK-II [1] = experiment: Inhibition of BCRP-mediated multidrug resistance in MDCK-II cells assessed as mitoxantrone accumulation at 0.1 to 5 uM pretreated 1 hr followed by treated with mitoxantrone measured after 180 mins by flow cytometry; type: cell-based; details: Canis lupus familiaris, dose 0.1-5 µM, time 240.0 min
K562 [2] = experiment: cells; details: Homo sapiens, K562, 48 h, read-out: Activity
Description: Potentiation of adriamycin-induced apoptosis in human K562 cells assessed as viable cells at 5 uM incubated for 48 hrs in presence of 10 uM adriamycin by Annexin-V/FITC-based flow cytometry (Rvb = 52.8%)

MDCK-II [3] = experiment: cells; details: Canis lupus familiaris, 48 h
Description: Cytotoxicity against MDCK-II cells incubated for 48 hrs by MTT assay

[4] = target: T1, ATP-dependent translocase ABCB1 (Homo sapiens, UniProt P08183); experiment: Inhibition of P-gp-mediated multidrug resistance in human K562/A02 cells assessed as Adriamycin accumulation pretreated 1 hr followed by treated with adriamycin measured after 180 mins by flow cytometry; type: cell-based; details: k562/a02, 4 h, time 240 min
T1 sequence (P08183 whole entry): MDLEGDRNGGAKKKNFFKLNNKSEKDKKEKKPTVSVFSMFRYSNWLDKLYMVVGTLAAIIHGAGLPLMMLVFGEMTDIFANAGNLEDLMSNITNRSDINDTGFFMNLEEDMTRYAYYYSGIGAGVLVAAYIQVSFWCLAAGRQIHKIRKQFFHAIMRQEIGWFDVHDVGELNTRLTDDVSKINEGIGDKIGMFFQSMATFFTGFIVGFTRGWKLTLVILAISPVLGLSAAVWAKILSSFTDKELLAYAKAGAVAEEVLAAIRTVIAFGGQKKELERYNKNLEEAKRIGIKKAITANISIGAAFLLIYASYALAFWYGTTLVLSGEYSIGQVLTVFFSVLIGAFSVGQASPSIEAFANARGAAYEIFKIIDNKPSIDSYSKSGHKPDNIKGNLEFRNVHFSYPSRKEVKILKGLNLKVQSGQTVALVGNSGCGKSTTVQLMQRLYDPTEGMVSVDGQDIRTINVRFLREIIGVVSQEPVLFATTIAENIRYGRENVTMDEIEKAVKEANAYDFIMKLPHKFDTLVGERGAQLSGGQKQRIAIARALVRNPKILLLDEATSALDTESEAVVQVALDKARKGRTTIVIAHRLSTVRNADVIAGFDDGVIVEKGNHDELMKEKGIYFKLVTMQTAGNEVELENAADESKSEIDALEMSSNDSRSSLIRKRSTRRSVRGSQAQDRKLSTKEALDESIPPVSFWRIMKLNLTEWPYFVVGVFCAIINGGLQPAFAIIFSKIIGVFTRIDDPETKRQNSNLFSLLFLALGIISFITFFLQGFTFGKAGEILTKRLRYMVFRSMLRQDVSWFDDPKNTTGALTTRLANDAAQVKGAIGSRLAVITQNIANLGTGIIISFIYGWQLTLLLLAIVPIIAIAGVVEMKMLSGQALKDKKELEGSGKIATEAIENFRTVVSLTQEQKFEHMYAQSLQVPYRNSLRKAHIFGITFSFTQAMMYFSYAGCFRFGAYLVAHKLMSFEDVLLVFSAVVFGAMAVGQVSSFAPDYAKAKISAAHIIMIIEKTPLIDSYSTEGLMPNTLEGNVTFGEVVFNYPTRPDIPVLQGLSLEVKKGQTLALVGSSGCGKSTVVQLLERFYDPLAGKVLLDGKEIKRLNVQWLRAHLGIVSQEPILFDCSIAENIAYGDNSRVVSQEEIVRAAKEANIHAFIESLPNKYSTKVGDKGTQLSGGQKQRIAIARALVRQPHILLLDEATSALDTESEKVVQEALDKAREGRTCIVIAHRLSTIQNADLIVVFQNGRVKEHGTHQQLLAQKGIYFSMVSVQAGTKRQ

[5] = target: T1, ATP-dependent translocase ABCB1; experiment: Inhibition of P-gp-mediated multidrug resistance in human K562/A02 cells assessed as Adriamycin accumulation at 1 to 10 uM pretreated 1 hr followed by treated with adriamycin measured after 180 mins by fluorescence microscopy; type: cell-based; details: k562/a02, 4 h, dose 1-10 µM, time 240 min
K562/A02 = experiment: Cytotoxicity against P-gp overexpressing human K562/A02 cells incubated for 48 hrs by MTT assay; type: functional, cell-based; details: K562/A02, 48 h, read-out: IC50
K562 [6] = experiment: Cytotoxicity against human K562 cells incubated for 48 hrs by MTT assay; type: functional, cell-based; details: K562, 48 h
MDCK-II [7] = experiment: cells; details: Canis lupus familiaris, 48 h; remark: listed apart in the source
Description: Cytotoxicity against BCRP-overexpressing MDCK-II cells incubated for 48 hrs by MTT assay

[8] = n-Octanol/water partition coefficient, logP of the compound by UHPLC analysis; type: physicochemical

Row | Compound | Activity [4] | Activity [5] | logP [8] | Activity (MDCK-II [1]) | viability at 5 µM (K562 [2]) [%] | IC50 (MDCK-II [3]) [µM] | IC50 (K562/A02) [µM] | IC50 (K562 [6]) [µM] | IC50 (MDCK-II [7]) [µM]
1 | COc1cc2c(cc1OC)CN(CCNC(=O)c1ccc(C)c(Nc3nccc(-c4ccccc4)n3)c1)CC2 | – | – | 1.9 | – | – | > 100 | 66.2 | > 100 | 4740
2 | COc1cc2c(cc1OC)CN(CCc1ccc(NC(=O)c3ccc(C)c(Nc4nccc(-c5cccc(O)c5)n4)c3)cc1)CC2 | – | – | 2.28 | – | – | > 100 | 84.2 | > 100 | > 100
3 | COc1ccc(-c2ccnc(Nc3cc(C(=O)Nc4ccc(CCN5CCc6cc(OC)c(OC)cc6C5)cc4)ccc3C)n2)cc1 | – | – | 1.35 | – | – | > 100 | > 100 | > 100 | > 100

Further lines, with some results ahead:

Row | Activity [4] | Activity [5] | logP [8] | Compound | Activity (MDCK-II [1]) | viability at 5 µM (K562 [2]) [%] | IC50 (MDCK-II [3]) [µM] | IC50 (K562/A02) [µM] | IC50 (K562 [6]) [µM] | IC50 (MDCK-II [7]) [µM]
4 | Dose-Dependent Effect | Active | – | COc1cc2c(cc1OC)CN(CCc1ccc(NC(=O)c3cc(OC)c(OC)cc3NC(=O)c3cnc4ccccc4c3)cc1)CC2 | Active | 61.3 | > 100 | > 100 | > 100 | 83.6
5 | – | – | 2.77 | COc1cc2c(cc1OC)CN(CCc1ccc(NC(=O)c3ccc(C)c(Nc4nccc(-c5ccccc5O)n4)c3)cc1)CC2 | – | – | > 100 | > 100 | > 100 | > 100
6 | – | – | 0.76 | COc1cc2c(cc1OC)CN(CCc1ccc(NC(=O)c3cc(=O)c4c(OC)cccc4o3)cc1)CC2 | – | – | > 100 | > 100 | > 100 | > 100
